Data: patent US20090270442A1, “POLYMORPHS OF HYDROCHLORIDE SALT OF 5-(3-(ETHYLSULFONYL)PHENYL)-3,8-DIMETHYL-N-(1-METHYLPIPERIDIN-4-YL)-9H-PYRIDO[2,3-B]INDOLE-7-CARBOXAMIDE AND METHODS OF USE THEREFOR” (TAKEDA PHARMACEUTICAL COMPANY LIMITED, priority 2008, published 2009)

Experiment: DI water slurry during the concurrent process control screen
Assay type: physicochemical
Details: several hours (2-24 hours)

Q: Which “form isolated after slurry in DI water” value does the source give for `CCS(=O)(=O)c1cccc(-c2cc(C(=O)NC3CCN(C)CC3)c(C)c3[nH]c4ncc(C)cc4c23)c1` [Form B] here?
A: Form A was isolated
